Results published in paper PMC10501326, “A Phase I Study of the Pan-Notch Inhibitor CB-103 for Patients with Advanced Adenoid Cystic Carcinoma and Other Tumors” (Cancer Research Communications, 2023).

Key:
[1] = system: myeloma cell lines; set-up: method as in PMID 21159606; conditions: cited from earlier work
[2] = system: NOTCH-mutated advanced ACC; conditions: 77 patients, cited from earlier work
[3] = system: advanced solid tumors, adenoid cystic carcinoma (ACC); assay: Antitumor efficacy and survival (RECIST v1.1 response, CBR, PFS, OS); type: in vivo, human
Text: The study enrolled adults with histologically confirmed, locally advanced and/or metastatic solid tumors who had progressed on at least one line of prior systemic therapy (except for ACC) and relapsed/refractory T-ALL/LBL for whom no standard therapy was available. In dose escalation, participants with solid tumors with known or frequent Notch pathway–activating mutations were eligible (breast cancer, gastrointestinal tumors, hepatocellular carcinoma, osteosarcoma, malignant glomus tumor, and ACC), while the confirmatory cohort planned to enroll participants with selected tumor types (including T-ALL/LBL) and confirmed Notch pathway activation. Key eligibility criteria included patients ≥18 years of age with evaluable disease, Eastern Cooperative Oncology Group (ECOG) performance status 0–1, able to swallow capsules, and adequate organ function. Participants were excluded if they had clinically significant cardiac disease or thromboembolic events within the preceding 6 months, and drugs prolonging the QTc were avoided. A complete list of eligibility criteria is outlined in the Supplementary Materials and Methods.
Safety was assessed via monitoring of DLTs during the first treatment cycle, and of AEs, physical exam, and clinical lab results (hematology, coagulation, blood chemistry, urinalysis, and cardiac markers) throughout the study (Supplementary Table S1). 12-lead electrocardiograms and Holter safety monitoring with periodic cardiac imaging was employed. Efficacy assessments used RECIST v1.1 applied to CT/MRI scans performed at screening and every 8 weeks; or evaluated complete remission with complete hematologic recovery by National Comprehensive Cancer Network guideline criteria for T-ALL/T-LBL. Adherence to study drug administration was evaluated using both patient diaries and capsule counts.
The primary endpoint for dose escalation was the number of patients experiencing DLT during the first 28-day cycle of CB-103 and for the confirmatory phase, the incidence rate, severity, and relationship of AEs to CB-103. Secondary endpoints included assessment of clinical benefit rate [CBR; defined as achieving complete and/or partial response and/or stable disease (SD) at prespecified benchmarks], duration of response, progression-free survival (PFS) and overall survival (OS), and plasma pharmacokinetics.
The objective of the BLRM design ([10]) was to determine the MTD defined as the highest dose with less than 25% risk of the true DLT rate being above 33%. The MTD was considered reached if one of the following criteria was fulfilled: (i) if the posterior probability of the true DLT rate in the target interval (16%–33%) of the MTD was >50%, and (ii) at least 6 patients were treated at the MTD. Under this model, and accounting for dropouts and some additional patients enrolled to each cohort, approximately 55 patients were anticipated to enroll in dose escalation and approximately 45 patients in the confirmatory phase. Data were reported using 95% confidence intervals (CI) and survival endpoints (PFS, OS) are reported from the time of first treatment to the first of progression or death summarized by Kaplan–Meier estimates. All statistical analyses were analyzed using SAS v9.4 software.

[4] = Phase I/II safety and tolerability: DLTs and treatment-related adverse events (CTCAE v4.03); type: in vivo; conditions: added to CB-103; one patient
Text: The study was an open-label, nonrandomized, phase I/II dose-escalation study with planned expansion cohorts. […] Part B was a potential expansion phase at the MTD/RP2D to determine preliminary evidence of antitumor activity and to confirm safety among patients stratified by preselected cancer indications.
Part A was based on a two-parameter Bayesian logistic regression model (BLRM) to investigate safety and tolerability of sequentially enrolled dose cohorts of 3–6 patients. The first 2 participants of each cohort were enrolled in a staggered approach with at least 1 day apart between first dosing.
12-lead electrocardiograms and Holter safety monitoring with periodic cardiac imaging was employed. Efficacy assessments used RECIST v1.1 applied to CT/MRI scans performed at screening and every 8 weeks; or evaluated complete remission with complete hematologic recovery by National Comprehensive Cancer Network guideline criteria for T-ALL/T-LBL. Adherence to study drug administration was evaluated using both patient diaries and capsule counts.
Secondary endpoints included assessment of clinical benefit rate [CBR; defined as achieving complete and/or partial response and/or stable disease (SD) at prespecified benchmarks], duration of response, progression-free survival (PFS) and overall survival (OS), and plasma pharmacokinetics.
The SS was the primary population for all safety and efficacy analyses, except for determination of dose-DLT relationship.
Under this model, and accounting for dropouts and some additional patients enrolled to each cohort, approximately 55 patients were anticipated to enroll in dose escalation and approximately 45 patients in the confirmatory phase. […] All statistical analyses were analyzed using SAS v9.4 software.

[5] = advanced ACC population; cited from earlier work

## CN(C)CC[C@H](CSc1ccccc1)Nc1ccc(S(=O)(=O)NC(=O)c2ccc(N3CCN(Cc4ccccc4-c4ccc(Cl)cc4)CC3)cc2)cc1[N+](=O)[O-] [ABT-737]
[1]
  Effect of combining with a GSI: synergism

## CN1C(=O)[C@@H](NC(=O)[C@H](CCC(F)(F)F)[C@H](CCC(F)(F)F)C(N)=O)N=C(c2ccccc2)c2ccccc21 [AL101]
[2]; benchmark not reported
  Disease control rate: 69%
[2]
  Partial response rate: 12%
  Patients exhibiting SD: 57%

## CC1(C)CCC(CN2CCN(c3ccc(C(=O)NS(=O)(=O)c4ccc(NCC5CCOCC5)c([N+](=O)[O-])c4)c(Oc4cnc5[nH]ccc5c4)c3)CC2)=C(c2ccc(Cl)cc2)C1 [Venetoclax, reference compound]
[3]; 1 patient with NOTCH1-activating metastatic ACC and tumor BCL2 overexpression
  Effect of off-label addition to CB-103 after first progression: additional tumor growth stabilization
[3]; off-label, added to CB-103 upon signs of disease progression, one patient, NOTCH1-activated metastatic ACC, BCL2 overexpression
  Further disease stabilization, additional time: 3.5 months
[4]
  Tolerance in combination: good tolerance

## CNC(=O)c1ccccc1Sc1ccc2c(/C=C/c3ccccn3)n[nH]c2c1 [axitinib]
[5]
  Discontinuation rates for toxicity: ≥ 20%
